Results reported in patent publication US5834461A, “Tricyclic benzazepine vasopressin antagonists” (American Cyanamid Company, priority 1997, dated 1998).

What was measured:
vasopressin V2 = assay: Vasopressin V2 Antagonist Activity in Conscious Hydrated Rats (diuretic effect); format: in vivo, normal Sprague-Dawley rats; settings: AVP 0.4 μg/kg i.p.
Summary of the method: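 Conscious rats were dosed orally at 0.1–100 mg/kg, and AVP 0.4 μg/kg i.p. in peanut oil followed 1 h later. Urine volume, osmolality and Na/K/Cl were compared against AVP-treated controls, with non-AVP rats as water-loading controls.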

[1] = target: T1, rat kidney medullary V2 receptors (Rattus norvegicus, UniProt Q00788); assay: Binding Assay to Rat Kidney Medullary V2 Receptors; settings: for inhibition at 10 µM: rat kidney, read-out: V2, % at concentration in brackets; for IC50: rat kidney medullary V2
T1 construct: Medullary tissues from rat kidneys are dissected out; from tissue; host or cells: rat kidney medulla membranes
Summary of the method: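 Competition binding: [3H]AVP at 0.8 nM, test compounds from 50% DMSO, and membranes from rat kidney medulla, left 120 min on the bench. Filtration then liquid scintillation counting measured bound ligand; 1.0 μM unlabeled ligand set non-specific binding.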

vasopressin V1 = assay: Vasopressin V1 Antagonist Activity in Conscious Rats (vasopressin vasopressor response); format: in vivo, rat (spontaneously hypertensive rats)
Summary of the method: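 Conscious rats had the ventral caudal tail artery cannulated into the lower abdominal aorta under local procaine anesthesia, plus a caudal vein cannula for intravenous dosing. Pulsatile blood pressure was recorded via a Statham P23Db transducer. Vasopressor responses to vasopressin injections were measured before and after compound dosing, with percent antagonism calculated relative to the pre-drug response taken as 100%.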

[2] = target: vasopressin V1 receptor (rat liver plasma membranes) (Rattus norvegicus, UniProt P30560); assay: Binding Assay to Rat Hepatic V1 Receptors; settings: for IC50: rat hepatic V1
Sequence of vasopressin V1 receptor (rat liver plasma membranes) (P30560 whole entry): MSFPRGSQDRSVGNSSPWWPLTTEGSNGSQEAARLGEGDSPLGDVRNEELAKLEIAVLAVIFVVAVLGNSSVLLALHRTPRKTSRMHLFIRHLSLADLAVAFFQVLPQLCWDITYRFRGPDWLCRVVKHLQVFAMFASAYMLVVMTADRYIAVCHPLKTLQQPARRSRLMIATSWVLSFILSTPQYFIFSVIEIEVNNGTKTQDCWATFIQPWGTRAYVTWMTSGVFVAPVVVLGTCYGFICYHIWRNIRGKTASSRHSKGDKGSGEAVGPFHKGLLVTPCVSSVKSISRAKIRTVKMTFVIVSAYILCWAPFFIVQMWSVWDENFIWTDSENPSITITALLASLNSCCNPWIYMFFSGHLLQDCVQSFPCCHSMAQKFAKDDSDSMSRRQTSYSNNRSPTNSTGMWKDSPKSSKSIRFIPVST

T1 sequence (Q00788 whole entry): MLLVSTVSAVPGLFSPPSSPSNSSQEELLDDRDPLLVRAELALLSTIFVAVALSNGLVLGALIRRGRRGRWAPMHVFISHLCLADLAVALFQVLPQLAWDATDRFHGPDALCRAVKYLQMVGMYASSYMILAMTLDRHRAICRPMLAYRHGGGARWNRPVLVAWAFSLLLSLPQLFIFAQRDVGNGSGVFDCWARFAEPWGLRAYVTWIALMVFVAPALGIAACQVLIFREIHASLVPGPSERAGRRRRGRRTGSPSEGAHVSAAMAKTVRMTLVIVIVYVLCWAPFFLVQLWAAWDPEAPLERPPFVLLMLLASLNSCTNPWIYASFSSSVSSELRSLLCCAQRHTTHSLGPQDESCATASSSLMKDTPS

SMILES: Cc1nc2c(s1)CCN(C(=O)c1ccc(NC(=O)c3cc(F)ccc3C)cc1)c1ccccc1-2 [Example 534]
- Osmolality (vasopressin V2; 10 mg/kg orally): 695 mOsm/kg
- Urine Volume (vasopressin V2; 10 mg/kg orally): 10.6 ml/4 hrs.

SMILES: CC(C)COc1ccc([N+](=O)[O-])cc1C(=O)Nc1ccc(C(=O)N2Cc3ccccc3Cc3ccccc32)cc1 [Example 453]
- inhibition at 10 µM [1]: 26%
- Osmolality (vasopressin V2; 10 mg/kg orally): 776 mOsm/kg
- Urine Volume (vasopressin V2; 10 mg/kg orally): 9.4 ml/4 hrs.

SMILES: COc1cc(C(=O)N2Cc3ccccc3Cc3ccccc32)ccc1NC(=O)c1ccc(Cl)cc1Cl [Example 263, N-[4-[(6,11-Dihydro-5H-dibenz[b,e]azepin-5-yl)-carbonyl]-2-methoxyphenyl]-2,4-dichlorobenzamide]
- MAX % Inhibition (vasopressin V1; 10 mg/kg i.v.): 55%
- Time of max % inhibition (vasopressin V1; 10 mg/kg i.v.): 90 min

SMILES: O=C(Nc1ccc(C(=O)N2Cc3ccccc3Cc3ccccc32)cc1)c1cc(Cl)cc(Cl)c1 [Example 251, N-(4-[(6,11-Dihydro-5H-dibenz[b,e]azepin-5-yl)-carbonyl]phenyl]-3,5-dichlorobenzamide]
- IC50 [2]: 1500 nM
- IC50 [1]: 140 nM
- Osmolality (vasopressin V2; 10 mg/kg orally): 835 mOsm/kg
- Urine Volume (vasopressin V2; 10 mg/kg orally): 7.5 ml/4 hrs.
- MAX % Inhibition (vasopressin V1; 30 mg/kg i.v.): 41%
- Time of max % inhibition (vasopressin V1; 30 mg/kg i.v.): 60 min

SMILES: O=C(Nc1ccc(C(=O)N2Cc3ccccc3Cc3ccccc32)cc1)C1CC=CCC1 (centres unmarked) [Example 255, N-[4-[(6,11-Dihydro-5H-dibenz[b,e]azepin-5-yl)-carbonyl]phenyl]-3-cyclohexene-1-carboxamide]
- IC50 [2]: 27 nM
- IC50 [1]: 39 nM
- Osmolality (vasopressin V2; 30 mg/kg orally): 1456 mOsm/kg
- Urine Volume (vasopressin V2; 30 mg/kg orally): 2.3 ml/4 hrs.
- MAX % Inhibition (vasopressin V1; 10 mg/kg i.v.): 65%
- Time of max % inhibition (vasopressin V1; 10 mg/kg i.v.): 60 min

SMILES: COc1cc(C(=O)N2Cc3ccccc3Cc3ccccc32)ccc1NC(=O)c1cc(F)ccc1C [Example 261, N-[4-[(6,11-Dihydro-5H-dibenz[b,e]azepin-5-yl)-carbonyl]-2-methoxyphenyl]-2-methyl-5-fluorobenzamide]
- Osmolality (vasopressin V2; 10 mg/kg orally): 1337 mOsm/kg
- Urine Volume (vasopressin V2; 10 mg/kg orally): 3.8 ml/4 hrs.
- MAX % Inhibition (vasopressin V1; 10 mg/kg i.v.): 74%
- Time of max % inhibition (vasopressin V1; 10 mg/kg i.v.): 60 min

SMILES: Cc1ccccc1C(=O)Nc1ccc(C(=O)N2CCc3cn(C)nc3-c3ccccc32)cc1 [Example 379, N-[4-[(4,5-Dihydro-2-methylpyrazolo[4,3-d][1]-benzazepin-6(2H)-yl)carbonyl]phenyl]-2-methylbenzamide]
- IC50 [2]: 250 nM
- IC50 [1]: 53 nM
- Osmolality (vasopressin V2; 20 mg/kg orally): 483 mOsm/kg
- Urine Volume (vasopressin V2; 20 mg/kg orally): 7 ml/4 hrs.
- MAX % Inhibition (vasopressin V1; 10 mg/kg i.v.): 75%
- Time of max % inhibition (vasopressin V1; 10 mg/kg i.v.): 300 min

SMILES: Cc1ccccc1C(=O)N(CN(C)C)c1ccc(C(=O)N2Cc3ccccc3Cc3ccccc32)cc1 [Example 267, N-[4-[(6,11-Dihydro-5H-dibenz[b,e]azepin-5-yl)-carbonyl]phenyl]-N-[(dimethylamino)methyl]-2-methylbenzamide]
- IC50 [2]: 26 nM
- IC50 [1]: 82 nM
- Osmolality (vasopressin V2; 10 mg/kg orally): 517 mOsm/kg
- Urine Volume (vasopressin V2; 10 mg/kg orally): 7.5 ml/4 hrs.
- MAX % Inhibition (vasopressin V1; 10 mg/kg i.v.): 74%
- Time of max % inhibition (vasopressin V1; 10 mg/kg i.v.): 120 min

SMILES: Cc1ccccc1C(=O)Nc1ccc(C(=O)N2Cc3ccccc3Cc3ccccc32)c(Cl)c1 [Example 260, N-[4-[(6,11-Dihydro-5H-dibenz[b,e]azepin-5-yl)-carbonyl]-3-chlorophenyl]-2-methylbenzamide]
- IC50 [2]: 120 nM
- IC50 [1]: 65 nM
- Osmolality (vasopressin V2; 10 mg/kg orally): 498 ± 25 mOsm/kg
- Urine Volume (vasopressin V2; 10 mg/kg orally): 13.8 ± 2.1 ml/4 hrs.
- MAX % Inhibition (vasopressin V1; 30 mg/kg i.v.): 79%
- Time of max % inhibition (vasopressin V1; 30 mg/kg i.v.): 120 min

SMILES: Cc1ncc2c(n1)-c1ccccc1N(C(=O)c1ccc(NC(=O)c3ccccc3C)cc1)CC2 [Example 416, N-[4-[(6,7-Dihydro-2-methyl-5H-pyrimido[5,4-d][1]-benzazepin-7-yl)carbonyl]phenyl]-2-methylbenzamide]
- IC50 [2]: 34500 nM
- IC50 [1]: 1100 nM
- Osmolality (vasopressin V2; 10 mg/kg orally): 1156 mOsm/kg
- Urine Volume (vasopressin V2; 10 mg/kg orally): 4.3 ml/4 hrs.
- MAX % Inhibition (vasopressin V1; 30 mg/kg i.v.): 44%
- Time of max % inhibition (vasopressin V1; 30 mg/kg i.v.): 90 min

SMILES: Cc1c(F)cccc1C(=O)Nc1ccc(C(=O)N2Cc3ccccc3Cc3ccccc32)cc1Cl [Example 262, N-[4-[(6,11-Dihydro-5H-dibenz[b,e]azepin-5-yl)-carbonyl]-2-chlorophenyl]-2-methyl-3-fluorobenzamide]
- Osmolality (vasopressin V2; 10 mg/kg orally): 899 mOsm/kg
- Urine Volume (vasopressin V2; 10 mg/kg orally): 6.8 ml/4 hrs.

SMILES: Cc1nc2c(s1)CCN(C(=O)c1ccc(NC(=O)c3ccc(Cl)cc3Cl)cc1)c1ccccc1-2 [Example 455, N-[4-(4,5-Dihydro-2-methyl-6H-thiazolo[5,4-d][1]-benzazepin-6-yl)carbonyl1phenyl]-2,4-dichlorobenzamide]
- Osmolality (vasopressin V2; 10 mg/kg orally): 420 mOsm/kg
- Urine Volume (vasopressin V2; 10 mg/kg orally): 13.5 ml/4 hrs.
- MAX % Inhibition (vasopressin V1; 30 mg/kg i.v.): 46%
- Time of max % inhibition (vasopressin V1; 30 mg/kg i.v.): 120 min

SMILES: Cc1ccc(F)cc1C(=O)Nc1ccc(C(=O)N2CCc3c[nH]nc3-c3ccccc32)c(Cl)c1 [Example 581]
- IC50 [2]: 740 nM
- IC50 [1]: 11.3 nM

SMILES: COc1cc(C(=O)N2Cc3ccccc3Cc3ccccc32)ccc1NC(=O)c1ccccc1C [Example 257, N-[4-[(6,11-Dihydro-5H-dibenz[b,e]azepin-5-yl)-carbonyl]-2-methoxyphenyl]-2-methylbenzamide]
- Osmolality (vasopressin V2; 10 mg/kg orally): 434 mOsm/kg
- Urine Volume (vasopressin V2; 10 mg/kg orally): 11.8 ml/4 hrs.
- MAX % Inhibition (vasopressin V1; 10 mg/kg i.v.): 71%
- Time of max % inhibition (vasopressin V1; 10 mg/kg i.v.): 60 min

SMILES: Cc1ccc(F)cc1C(=O)Nc1ccc(C(=O)N2CCc3c[nH]nc3-c3ccccc32)cc1 [Example 584, N-[4-[(4.5-Dihydropyrazolo[4,3-d][1]benzazepin-6(2H)-yl)carbonyl]phenyl]-5-fluoro-2-methylbenzamide]
- IC50 [2]: 39 nM
- IC50 [1]: 11 nM

SMILES: Cc1ccccc1C(=O)Nc1c(C)cc(C(=O)N2Cc3ccccc3Cc3ccccc32)cc1C [Example 258, N-[4-[(6,11-Dihydro-5H-dibenz[b,e]azepin-5-yl)-carbonyl]-2,6-dimethylphenyl]-2-methylbenzamide]
- inhibition at 10 µM ([2]; 2 h, 10 μM, rat hepatic, read-out: V1, % at concentration in brackets): 75%
- inhibition at 10 µM [1]: 87%
- MAX % Inhibition (vasopressin V1; 30 mg/kg i.v.): 61%
- Time of max % inhibition (vasopressin V1; 30 mg/kg i.v.): 60 min
